The target of one assay is cdk1/cyclin B (CDC2) (Homo sapiens, UniProt P06493). The assay is described as follows: CDK inhibition assay, cdk1/cyclin B (CDC2) kinase, histone phosphorylation. The assay is classed as biochemical. The method, then: Selected compounds were tested for cdk1/cyclin B and cdk2/cyclin E inhibitory activity to determine the basic relationships between their interaction energy of docked complex and the inhibitory activity. Cdk2/cyclin E complex was produced in SIP insect cells co-infected with appropriate baculoviral construct. The cells were harvested 70 hours post infection in lysis buffer (50 mM Tris 7.4 pH, 150 mM NaCl, 5 mM EDTA, 20 mM NaF, 1% Tween 20, protease inhibitors) for 30 min on ice and the soluble fraction was recovered by centrifugation at 14.000 g for 10 min. The protein extract was stored at −80° C. until use. The final point test system for kinase activity measurement was used to carry out experiments on the kinetics under linear conditions. The assay mixture contained 1 mg/ml histone (Sigma Type III-S), 15 μM ATP, 0.2 μCi [γ-^32P] ATP and tested compound in a final volume of 20 μl, all in reaction buffer: 50 mM Hepes 7.4 pH, 10 mM MgCl2, 5 mM EGTA, 10 mM 2-glycerolphosphate, 1 mM NaF, 1 mM DTT and protease inhibitors. […] The measurement of kinase inhibition employed the digital imaging analyzer BAS 1800. The kinase activity was expressed as a percentage of maximum activity and the IC50 value was determined by graphic analysis. The kinase activity is expressed as a percentage of maximum activity, the apparent inhibition constants are determined by graphic analysis from dose-response curves presented on FIG. 1.

For another assay, the target named is IκB-α kinase. Briefly: IκB-α kinase inhibition, in vitro kinase assay. In kind it is biochemical.
For assay [1], the system named is Cytokinin-dependent tobacco callus Nicotiana tabacum L. cv. Wisconsins 38. The assay is described as follows: Tobacco callus bioassay for cytotoxicity (herbicidal activity). The assay is classed as cell-based. As for the experimental part: The novel compounds have also been tested in tobacco callus bioassay for cytotoxicity (herbicidal activity) and induction of cell death. The compounds to be tested were dissolved in dimethylsulfoxide (DMSO) and the solution brought up to 10^−3 M with distilled water. […] Cytokinin-dependent tobacco callus Nicotiana tabacum L. cv. Wisconsins 38 Murashige-Skoog medium, containing per 1 liter: 4 μmol nicotinic acid, 2.4 μmol pyridoxine hydrochloride, 1.2 μmol thiamine, 26.6 μmol glycine, 1.37 μmol glutamine, 1.8 μmol myo.inositol, 30 g of sucrose, 8 g of agar, […] α-naphthylacetic acid and 0.5 μmol 6-benzylaminopurine. Sub cultivation was carried out every three weeks. Fourteen days before the bioassay, the callus tissue was transferred to the media without 6-benzylaminopurine. Compounds were tested with two different concentrations of 6-benzylaminopurine (10^−5 M and 10^−6 M). Inhibitory growth activity was determined from the increase in fresh callus weight after four weeks of cultivation. Five replicates were prepared for each concentration tested and the entire test was repeated at least twice.

Setting [2] is: Nicotiana tabacum, 672 h, read-out: 10^−5 M BAP IC50, 10^−5 M 6-benzylaminopurine, four weeks.
Setting [3] is: Nicotiana tabacum, 672 h, read-out: 10^−6 M BAP IC50, 10^−6 M 6-benzylaminopurine, four weeks.

Data on 20 compounds can be found in patent publication US7745450B2, “Pyrazolo[4,3-d]pyrimidines, processes for their preparation and methods for therapy” (Institute of Experimental Botany, priority 2002, dated 2010).

Read-outs that look alike come from different tables or passages of the source.

Chain of cdk1/cyclin B (CDC2) (P06493 whole entry, species assumed): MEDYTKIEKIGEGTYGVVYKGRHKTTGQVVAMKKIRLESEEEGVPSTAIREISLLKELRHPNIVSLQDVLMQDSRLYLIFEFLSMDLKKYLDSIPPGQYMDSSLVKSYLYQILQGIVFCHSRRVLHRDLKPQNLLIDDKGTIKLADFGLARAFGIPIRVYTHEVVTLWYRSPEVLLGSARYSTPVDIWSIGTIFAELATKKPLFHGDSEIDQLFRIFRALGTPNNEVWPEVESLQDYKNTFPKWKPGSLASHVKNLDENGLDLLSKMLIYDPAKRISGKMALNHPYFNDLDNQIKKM
Chain of cdk1/cyclin B (CDC2) (P14635 whole entry partner, species assumed): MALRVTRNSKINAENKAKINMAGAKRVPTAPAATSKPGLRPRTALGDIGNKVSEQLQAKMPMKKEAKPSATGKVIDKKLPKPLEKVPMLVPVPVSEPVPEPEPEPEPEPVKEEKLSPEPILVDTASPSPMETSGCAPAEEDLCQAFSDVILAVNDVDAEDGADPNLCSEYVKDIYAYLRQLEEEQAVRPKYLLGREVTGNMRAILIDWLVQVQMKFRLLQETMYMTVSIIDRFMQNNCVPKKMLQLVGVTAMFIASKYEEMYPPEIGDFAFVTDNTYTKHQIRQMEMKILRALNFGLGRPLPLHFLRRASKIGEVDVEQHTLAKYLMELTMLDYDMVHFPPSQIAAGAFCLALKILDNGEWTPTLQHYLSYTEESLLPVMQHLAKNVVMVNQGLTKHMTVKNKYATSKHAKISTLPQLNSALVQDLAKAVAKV

A word on the IC50: it is the concentration at which inhibition is half-maximal. As for `CC(C)c1n[nH]c2c(Nc3ccc(Cl)cc3)nc(N[C@@H](CO)C(C)C)nc12`, the IC50 was 0.5 nM on cdk1/cyclin B (CDC2), 1 nM against IκB-α kinase, 24000 nM in assay [1] (setting [2]) and 2300 nM in assay [1] (setting [3]).
Consider `CC(C)c1n[nH]c2c(Nc3ccc(Cl)c(N)c3)nc(N[C@@H](CO)C(C)C)nc12`, for which the IC50 against cdk1/cyclin B (CDC2) turned out to be 1 nM; at IκB-α kinase it was 2 nM; in assay [1] (setting [2]), 25000 nM; in assay [1] (setting [3]) it was 1800 nM.
The matching figures for `Cc1cccc(CNc2nc(N[C@@H](CO)C(C)C)nc3c(C(C)C)n[nH]c23)c1O`: 1 nM, 2 nM, more than 50000 nM and 10700 nM.
`CC(C)c1n[nH]c2c(Nc3cccc(Cl)c3)nc(N[C@@H](CO)C(C)C)nc12`: the IC50 at cdk1/cyclin B (CDC2) was 4 nM; on IκB-α kinase it was 9 nM; in assay [1] (setting [2]) it was more than 50000 nM; in assay [1] (setting [3]) it was 11000 nM.
The matching figures for `CC[C@H](CO)Nc1nc(NCc2cccc(C)c2O)c2[nH]nc(C(C)C)c2n1`: 6 nM, 14 nM, more than 50000 nM and 12300 nM.
As to `CC(C)c1n[nH]c2c(Nc3cccc(Cl)c3)nc(NC3CCC(N)CC3)nc12` (stereo not drawn), the IC50 against cdk1/cyclin B (CDC2) is 1 nM; against IκB-α kinase, 12 nM; in assay [1] (setting [2]), more than 50000 nM; in assay [1] (setting [3]), 25000 nM.
The matching figures for `CC(C)c1n[nH]c2c(Nc3ccc(C(=O)O)c(Cl)c3)nc(N[C@@H](CO)C(C)C)nc12`: 0.9 nM, 2 nM, 26000 nM and 1400 nM.
Regarding `CC[C@H](CO)Nc1nc(Nc2ccccc2)c2[nH]nc(C(C)C)c2n1`, the 50% inhibitory concentration (IC50) on cdk1/cyclin B (CDC2) is 20 nM; at IκB-α kinase it was 110 nM; in assay [1] (setting [2]), 48000 nM; in assay [1] (setting [3]), 6200 nM.
As to `CC(C)c1n[nH]c2c(Nc3cccc(Cl)c3)nc(NCCN)nc12`, the IC50 was 140 nM at cdk1/cyclin B (CDC2), 250 nM against IκB-α kinase, more than 50000 nM in assay [1] (setting [2]) and 48000 nM in assay [1] (setting [3]).
With `CC(C)c1n[nH]c2c(NCc3ccccc3)nc(NC3CCC(N)CC3)nc12` (stereo not drawn) [Compound 268, 3-isopropyl-5-(4-aminocyclohexylamino)-7-benzylamino-pyrazolo[4,3-d]pyrimidine], the half-inhibitory concentration (IC50) was 5 nM against cdk1/cyclin B (CDC2), more than 50000 nM in assay [1] (setting [2]) and 32000 nM in assay [1] (setting [3]).
With `CC[C@H](CO)Nc1nc(Nc2cccc(Cl)c2)c2[nH]nc(C(C)C)c2n1`, the IC50 against cdk1/cyclin B (CDC2) was 4 nM; in assay [1] (setting [2]), 45000 nM; in assay [1] (read-out: 10^−5 M BAP IC50, 10^−5 M 6-benzylaminopurine, four weeks) it was more than 50000 nM.
For the compound `CC(C)c1n[nH]c2c(N(C)Cc3ccc(O)c(O)c3)nc(N[C@@H](CO)C(C)C)nc12`, the values for the IC50 on cdk1/cyclin B (CDC2) and at IκB-α kinase were 30 nM and 110 nM, respectively.
The matching figures for `Cc1n[nH]c2c(NCc3cccc(Cl)c3O)nc(NCCO)nc12`: 10 nM and 30 nM.
The matching figures for `CC(C)c1n[nH]c2c(NCc3ccccc3O)nc(N[C@@H](CO)C(C)C)nc12`: 0.5 nM and 1 nM.
In the case of `CC[C@H](CO)Nc1nc(NCc2cc(O)c(OC)cc2O)c2[nH]nc(C(C)C)c2n1`, the IC50 against cdk1/cyclin B (CDC2) stood at 2 nM; on IκB-α kinase, 6 nM.
The matching figures for `Cc1n[nH]c2c(NCc3c(O)cc(Cl)cc3O)nc(NCCO)nc12`: 5 nM and 12 nM.
Regarding `CC(=O)c1cccc(CNc2nc(N[C@@H](CO)C(C)C)nc3c(C(C)C)n[nH]c23)c1`, the figures for the IC50 on cdk1/cyclin B (CDC2) and against IκB-α kinase were 1 nM and 5 nM, respectively.
In the case of `CC[C@H](CO)Nc1nc(NCc2ccccc2C(C)=O)c2[nH]nc(C(C)C)c2n1`, the IC50 stood at 5 nM against cdk1/cyclin B (CDC2) and 15 nM on IκB-α kinase.
In the case of `Cc1n[nH]c2c(Nc3ccc(Cl)c(C(=O)O)c3)nc(NCCO)nc12`, the results for the IC50 against cdk1/cyclin B (CDC2) and on IκB-α kinase were 5 nM and 10 nM, respectively.
Turning to `CC(C)c1n[nH]c2c(NCc3ccccc3)nc(NCCO)nc12`, the IC50 worked out at 1000 nM on cdk1/cyclin B (CDC2) and 2300 nM against IκB-α kinase.
